Like-named read-outs stand apart in the source and are kept apart here.

For this assay, the system named is MIAPaCa-2 cancer initiating cells (ALDHbright cells). Nature of the assay: cancer initiating cell in vitro proliferation, ALDEFLUOR flow cytometry. It counts as cell-based. Particulars: Homo sapiens, read-out: growth inhibition of ALDHbright cells. How it is done:
FIG. 19. […] Human pancreatic adenocarcinoma MIAPaCa-2 cells were incubated with mAb W9 (25 μg/ml), for 48 hrs at 37° C. Cells were then harvested and stained with ALDEFLUOR® (TEST). Cells stained with ALDEFLUOR®+DAEB were used as a reference (CONTROL). Human Ig (HIg) were used as a control.
FIG. 26. […] Human pancreatic adenocarcinoma MIAPaCa-2 cells were incubated with mAb W9 (25 μg/ml), cyclopamine (20 μM), and 5-FU (10 μM) for 48 hrs at 37° C. Cells were then stained with ALDEFLUOR with or without the DEAB inhibitor to identify ALDH^bright cells. The anti-HLA class I mAb TP25.99 was used as a control.
FIGS. 28A and 28B. […] Human pancreatic adenocarcinoma MIAPaCa-2 cells (4×10^5/ml) were irradiated at the dose of 20Gy (panel A.) and incubated with mAb W9 (10 μg/ml) and cyclopamine (20 μM) for 72 hrs at 37° C. Cells were then stained with ALDEFLUOR with or without the DEAB inhibitor to identify ALDH^bright cells. Non-irradiated cell were used as a control (panel B.).
On the technique in general: A flow cytometer gives signals particle by particle.

Consider `O=c1[nH]cc(F)c(=O)[nH]1` [5-FU, 5-fluorouracil, reference compound], for which, under “MIA PaCa-2, MIAPaCa-2, mAb W9 25 μg/ml, cyclopamine 20 μM, 5-FU 10 μM, 48 hrs”, the inhibition at 10 µM was 20%.

Consider `CC1=C2C[C@H]3[C@@H](CC=C4C[C@@H](O)CC[C@@]43C)[C@@H]2CC[C@]12O[C@@H]1C[C@H](C)CN[C@H]1[C@H]2C` [cyclopamine, reference compound], for which the inhibition at 20 µM (MIA PaCa-2, 48 h) worked out at 50% and the inhibition at 20 µM (MIA PaCa-2, 72 h) is about 50%.

Broadly, the inhibition is how much of the control response was suppressed.

Source of the values: patent US9902766B2, “Antibodies to endoplasmin and their use” (University of Pittsburgh—Of The Commonwealth System of …, priority 2010, dated 2018).
